Assay results: patent publication US7176222B2, “Syntheses of ureas” (Cytokinetics, Inc., priority 2004, dated 2007)

For `CC(=O)N1CCC[C@@H](Oc2cc(F)cc(NC(=O)Nc3cccnc3)c2)C1` [Example 1, (R)-1-[3-(1-Acetyl-piperidin-3-yloxy)-5-fluoro-phenyl]-3-pyridin-3-yl-urea], the melting point was 145 °C.
